According to patent US4438044A, “Di-L-cysteine L-malate and process for the production thereof” (priority 1980, dated 1984):
Values after ≈ are worked out from the molar mass of the structure shown.

Columns and labels:
[1] = format: physicochemical
Experimental: The storage stability of the above crystalline product and L-cysteine hydrochloride anhydride is measured by keeping them at 40° C. The results are shown in the accompanying FIG. 3.

Solubility in water = format: physicochemical; conditions: 10° C.

stability in the crystalline form [1]: extremely stable
storage stability [1]: excellent stability
solubility (Solubility in water): 222 mg/mL (≈ 1830 mM)
Structure (SMILES): N[C@@H](CS)C(=O)O [di-L-cysteine L-malate]
